# Measured values taken from article PMC5281649 (European Journal of Nuclear Medicine and Molecular Imaging, 2016).
# Where two headings read alike, the source gives them in different places.
# How the values were obtained:
# brain MAO-B enzyme = target: T1, brain MAO-B enzyme (Homo sapiens, UniProt P27338); assay: PET with [11C]-L-deprenyl-D2: brain MAO-B inhibition after repeated oral sembragiline; format: in vivo; settings: mean (range); for [11C]-L-deprenyl-D2 λk3 post-dose: EC subjects; for [11C]-L-deprenyl-D2 λk3 post-dose / receptor occupancy at 0.2 mg: N = 3; for receptor occupancy at 0.2 mg / receptor occupancy at 5 mg / receptor occupancy at 1 mg / receptor occupancy at 0.1 mg: human, AD patients, read-out: Occ (MAO-B occupancy); for receptor occupancy at 0.2 mg: 168 h; for receptor occupancy at 5 mg: 216 h, 5 mg q.d. for 6–9 days; for receptor occupancy at 5 mg / receptor occupancy at 1 mg / receptor occupancy at 0.1 mg: N = 2; for receptor occupancy at 1 mg: 336 h; for receptor occupancy at 0.1 mg: 360 h, 5 mg loading day 1 then 0.1 mg q.d. days 2–15
# T1 sequence (P27338 1-520): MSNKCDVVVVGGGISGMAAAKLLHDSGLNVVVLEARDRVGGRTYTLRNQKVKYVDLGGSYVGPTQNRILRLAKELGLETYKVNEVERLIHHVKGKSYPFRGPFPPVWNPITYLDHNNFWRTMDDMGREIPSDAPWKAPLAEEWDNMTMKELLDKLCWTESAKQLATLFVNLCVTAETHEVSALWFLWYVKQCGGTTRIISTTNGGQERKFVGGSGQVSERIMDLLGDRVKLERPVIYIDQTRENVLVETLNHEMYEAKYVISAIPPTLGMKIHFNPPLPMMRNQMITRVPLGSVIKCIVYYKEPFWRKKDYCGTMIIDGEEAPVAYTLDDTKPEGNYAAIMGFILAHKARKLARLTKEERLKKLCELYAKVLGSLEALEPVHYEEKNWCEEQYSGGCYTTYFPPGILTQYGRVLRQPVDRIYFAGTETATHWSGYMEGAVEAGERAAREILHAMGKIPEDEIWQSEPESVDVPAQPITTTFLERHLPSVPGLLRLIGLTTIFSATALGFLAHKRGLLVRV
# Procedure: The first dose was administered at the study centre under the supervision of study personnel. On subsequent study days, treatment compliance was assured by intake logs and tablet counting.
# At baseline, each subject underwent a PET scan using [^11C]-L-deprenyl-D2 to measure MAO-B enzyme activity in the brain prior to their first dose of allocated medication. The second scan was performed at trough concentrations at steady state prior to the last drug administration. Before each scan, a cannula was inserted into a radial artery and another into an antecubital vein. A sterile phosphate buffer (pH = 7.4) containing radioligand was injected as a bolus over several seconds into the cubital vein.
# A transmission scan was performed using three rotating ^68Ge rod sources. [^11C]-L-Deprenyl-D2 was injected intravenously as a bolus, and emission data were acquired over 63 min using the ECAT EXACT high-resolution system (Siemens Medical Solutions, Malvern, PA, USA). The injected radioactivity was targeted to approximately 300 MBq. The injected mass of deprenyl was to be ≤100 μg, and ≥50–100-fold lower than the typical administered dose of 5–10 mg deprenyl to patients with Parkinson’s disease. The framing was as follows: 9 frames x 10 s, 2 frames x 15 s, 3 frames x 20 s, 4 frames x 30 s, 4 frames x 60 s, 4 frames x 180 s, 7 frames x 360 s. Images were reconstructed using the standard filtered back-projection, with a 2-mm Hanning filter, a zoom factor of 2.17, and a 128 × 128 matrix, and were corrected for attenuation and scatter. A summation PET image was created for each subject and PET session by averaging across all frames. Time–activity curves were then extracted from selected ROIs.
# Arterial blood samples were used for measurement of radioactivity in whole blood and plasma, as well as to determine the parent fraction of the radioligand, using a reversed-phase high-performance liquid chromatography method (Karolinska University Hospital, Solna, Stockholm, Sweden). A catheter was inserted in the radial artery, and arterial blood was collected continuously for 10 min using an automated blood sampling system at a speed of 5 mL/min. Discrete blood samples were drawn approximately 10, 15, 20, 30, 45 and 60 min after each injection of [^11C]-L-deprenyl-D2.
# Time–activity data were analysed as previously described. Briefly, [^11C]-L-deprenyl-D2 was quantified by the two-tissue compartment model with three rate constants (K 1, k 2, k 3) using the PMOD 3.3 software package (PMOD Group, Zurich, Switzerland), where the tissue compartments represent the free plus non-specifically bound and specifically bound radiotracer. The outcome measure λk 3 was calculated as (K 1/k 2)*k 3, using a non-linear approach, and was used as an estimate for specific binding to MAO-B that was independent of perfusion. […] This is because λk3 is independent of perfusion and has better reproducibility than k3 alone.
# [1] = design: method as in PMID 22451094; settings: elderly subjects; steady-state conditions; plasma; cited from earlier work
# [2] = design: method as in PMID 22451094; settings: phase 1 and 2 studies, approximately 1040 subjects; cited from earlier work
# [3] = 1 mg q.d. for 14 days, frontal cortex
# [4] = 1 mg q.d. for 14 days, hippocampus
# [5] = 1 mg q.d. for 14 days, parietal cortex
# [6] = 1 mg q.d. for 14 days, striatum
# [7] = 1 mg q.d. for 14 days, thalamus
# [8] = 1 mg q.d. for 14 days, whole brain
# [9] = 5 mg loading day 1 then 0.2 mg q.d. days 2–7, frontal cortex
# [10] = 5 mg loading day 1 then 0.2 mg q.d. days 2–7, hippocampus
# [11] = 5 mg loading day 1 then 0.2 mg q.d. days 2–7, parietal cortex
# [12] = 5 mg loading day 1 then 0.2 mg q.d. days 2–7, striatum
# [13] = 5 mg loading day 1 then 0.2 mg q.d. days 2–7, thalamus
# [14] = 5 mg loading day 1 then 0.2 mg q.d. days 2–7, whole brain
smiles,measurement,setting,value
CC(=O)N[C@H]1CC(=O)N(c2ccc(OCc3cccc(F)c3)cc2)C1 [sembragiline],[11C]-L-deprenyl-D2 λk3 post-dose,brain MAO-B enzyme; [3],0.04 (0.04–0.05)
same,[11C]-L-deprenyl-D2 λk3 post-dose,brain MAO-B enzyme; [4],0.04 (0.03–0.05)
same,[11C]-L-deprenyl-D2 λk3 post-dose,brain MAO-B enzyme; [5],0.04 (0.04–0.05)
same,[11C]-L-deprenyl-D2 λk3 post-dose,brain MAO-B enzyme; [6],0.05 (0.04–0.06)
same,[11C]-L-deprenyl-D2 λk3 post-dose,brain MAO-B enzyme; [7],0.05 (0.04–0.05)
same,[11C]-L-deprenyl-D2 λk3 post-dose,brain MAO-B enzyme; [8],0.05 (0.04–0.05)
same,[11C]-L-deprenyl-D2 λk3 post-dose,brain MAO-B enzyme; [9],0.07 (0.06–0.09)
same,[11C]-L-deprenyl-D2 λk3 post-dose,brain MAO-B enzyme; [10],0.11 (0.09–0.13)
same,[11C]-L-deprenyl-D2 λk3 post-dose,brain MAO-B enzyme; [11],0.07 (0.06–0.09)
same,[11C]-L-deprenyl-D2 λk3 post-dose,brain MAO-B enzyme; [12],0.12 (0.09–0.14)
same,[11C]-L-deprenyl-D2 λk3 post-dose,brain MAO-B enzyme; [13],0.12 (0.09–0.13)
same,[11C]-L-deprenyl-D2 λk3 post-dose,brain MAO-B enzyme; [14],0.08 (0.07–0.10)
same,receptor occupancy at 0.2 mg,brain MAO-B enzyme; [9],70.2%
same,receptor occupancy at 0.2 mg,brain MAO-B enzyme; [10],76.1%
same,receptor occupancy at 0.2 mg,brain MAO-B enzyme; [11],68.7%
same,receptor occupancy at 0.2 mg,brain MAO-B enzyme; [12],77.1%
same,receptor occupancy at 0.2 mg,brain MAO-B enzyme; [13],76.8%
same,receptor occupancy at 0.2 mg,brain MAO-B enzyme; [14],68.9%
same,receptor occupancy at 5 mg,brain MAO-B enzyme; frontal cortex,77.8%
same,receptor occupancy at 5 mg,brain MAO-B enzyme; hippocampus,83.3%
same,receptor occupancy at 5 mg,brain MAO-B enzyme; parietal cortex,78.1%
same,receptor occupancy at 5 mg,brain MAO-B enzyme; striatum,84.8%
same,receptor occupancy at 5 mg,brain MAO-B enzyme; thalamus,86.3%
same,receptor occupancy at 5 mg,brain MAO-B enzyme; whole brain,76.3%
same,receptor occupancy at 1 mg,brain MAO-B enzyme; [3],79.7%
same,receptor occupancy at 1 mg,brain MAO-B enzyme; [4],79.2%
same,receptor occupancy at 1 mg,brain MAO-B enzyme; [5],78%
same,receptor occupancy at 1 mg,brain MAO-B enzyme; [6],85%
same,receptor occupancy at 1 mg,brain MAO-B enzyme; [7],86%
same,receptor occupancy at 1 mg,brain MAO-B enzyme; [8],75.5%
same,receptor occupancy at 0.1 mg,brain MAO-B enzyme; frontal cortex,56.9%
same,receptor occupancy at 0.1 mg,brain MAO-B enzyme; hippocampus,53.8%
same,receptor occupancy at 0.1 mg,brain MAO-B enzyme; parietal cortex,55.6%
same,receptor occupancy at 0.1 mg,brain MAO-B enzyme; striatum,59.9%
same,receptor occupancy at 0.1 mg,brain MAO-B enzyme; thalamus,60.4%
same,receptor occupancy at 0.1 mg,brain MAO-B enzyme; whole brain,55.2%
same,Terminal half-life,[1],50 to 65 h
same,Safety and tolerability,[2],safe and well tolerated
